# Test results reported in patent publication US20060069040A1, “GHB compositions” (priority 2004, published 2006).
# Where two headings read alike, the source gives them in different places.
# Assays:
# [1] = cited from earlier work
# [2] = test system: CD-1 male mice; assay: Passivity test (sleep induction and sleep time); type: in vivo; settings: for Effect on GHB induced sleep time: 800 mg/kg i.p. of named compound followed immediately by GHB 800 mg/kg i.p.; for Effect on GHB sleep time: Example 6: 7.93 mmol/kg of named agent mixed in solution with GHB 7.93 mmol/kg, oral gavage, 8 mice
# Protocol: (§1) CD-1 male mice (30-40 g) were housed 3 to 4 per cage in the animal care facility on a 12 hour light dark cycle with free access to water and food for at least 1 week before testing.
# The passivity test developed by Irwing was used to determine sleep time. After GHB administration, the mice were placed in an unusual position and a score of 2, 4, 6, or 8 was given when the mice ceased to struggle against respectively being suspended vertically, rotated horizontally onto their backs, suspended by their hind limbs or suspended by their forelimbs. Scores on the passivity test were determined every 10 minutes after GHB administration. […] The time between scores of 8 and 2 was defined as the total sleep time.
# (§2) Statistical significance between control and treated groups at each time point in the present study was determined by student's t-test. Note that values of motor activity were expressed as a percentage of the baseline value which was normalized to 100%.
# The optimal dose of GHB for inducing sleep was determined with the passivity test. GHB was dissolved in 0.9% NaCl and 1% Tween 80 and delivered intraperitoneally (i.p.) to 4 groups of 6 mice that had not been fasting. Each group received either 200 mg/kg, 400 mg/kg, 600 mg/kg and 800 mg/kg. […] For this reason, this dose was used in the initial exploratory studies.
# [3] = test system: CD-1 male mice; type: in vivo; settings: for Effect on GHB induced motor inhibition: Example 3: named compound 800 mg/kg i.p. 2 or 15 minutes before GHB 800 mg/kg i.p., mice not fasting; for Effect on motor depression by oral GHB: Example 5: named compound 1200 mg/kg i.p. with GHB 1200 mg/kg orally
# Protocol: as §1
# The Rota-rod is a validated and sensitive tool that has been developed to document neurological deficits after pharmacological treatments. In this test, mice are placed on an accelerating Rota-rod whose revolutions per minute increase from 4 to 40 cycles per minute in about 4 minutes. The time it takes for the mice to fall off the rod is the end point of the test. Initially, the mice were given 3 practice runs on the rod to familiarize themselves with the test procedure. The time that mice remained on the rod was usually between five and ten minutes. A baseline measure was then made, the test drug given and the test procedure run every 20 minutes starting at time 0, immediately after drug administration. The mice were tested for 160 minutes after GHB administration although in some experiments recordings were made for as long as 280 minutes. Motor activity was expressed as a percentage of the baseline value. The time it took the mice to fall off the rod at a given time point after drug administration was divided by the time it took at baseline.
# as §2
# [4] = previous work (ref. 7); rats, tracer doses of GHB, intravenous infusion; cited from earlier work
smiles,measurement,setting,value
O=C([O-])Cc1ccccc1.[Na+] [phenylacetate sodium salt],Solubility in saline,[1],can be readily dissolved in saline
"O=C([O-])[C@H](O)[C@@H](O)[C@H](O)[C@H](O)CO.[Na+] [GA, D-gluconic acid sodium salt]",Effect on GHB induced sleep time,[2]; non-fasting mice,did not show an increase in GHB induced sleep time
"O=C(O)Cc1ccccc1 [PA, phenylacetic acid]",Effect on inhibitory effects of GHB on motor activity,"[3]; Example 4: phenylacetic acid […] mg/kg mixed in solution with GHB 800 mg/kg, oral, vs GHB 800 mg/kg oral alone",significantly intensified and prolonged the inhibitory effects of GHB on motor activity
"O=C1O[C@H](CO)[C@@H](O)[C@H](O)[C@H]1O [GAL, D-gluconic acid lactone]",Effect on GHB sleep time,[2],appeared to increase the sleep time
same,GHB induced sleep time,"[2]; non-fasting mice, n=6/group, GHB 800 mg/kg i.p. alone or immediately after 800 mg/kg i.p. of the named compound",155 ± 11 min
same,Effect on GHB induced motor inhibition,[3],most effectively potentiated GHB induced motor inhibition with significant effects at the 160 minute mark
same,Effect on motor depression by oral GHB,[3],further significantly enhanced
same,Effect on motor inhibition produced by GHB,[3]; Example 6: named agent 7.93 mmol/kg orally together with GHB 7.93 mmol/kg,neither oral gluconic acid lactone or gulonolactone augmented the depressant effects of GHB
"O=C[C@H](O)[C@@H](O)[C@H](O)[C@H](O)C(=O)[O-].[Na+] [GCA, D-glucuronic acid sodium salt]",Effect on GHB induced sleep time,[2]; non-fasting mice,did not show an increase in GHB induced sleep time
same,Effect on GHB induced motor inhibition,[3],potentiated and prolonged the motor inhibition produced by GHB
same,Effect on plasma half-life of GHB,[4],decreased the plasma half-life of GHB
"O=C1O[C@H]([C@@H](O)CO)[C@H](O)[C@@H]1O [GL, L-gulono-γ-lactone]",Effect on GHB sleep time,[2],appeared to increase the sleep time
same,Effect on motor depression by oral GHB,[3],further significantly enhanced
same,Effect on motor inhibition produced by GHB,"[3]; mouse, in vivo, po",neither oral gluconic acid lactone or gulonolactone augmented the depressant effects of GHB
"O=C([O-])[C@@H](O)[C@@H](O)[C@H](O)[C@@H](O)CO.[Na+] [G, L-gulonic acid sodium salt]",Effect on GHB sleep time,[2],almost doubled the sleep time
same,Effect on motor inhibition produced by GHB,"[3]; mouse, in vivo, po",significantly prolonged and deepened the motor inhibition produced by GHB
same,Effect on motor performance on its own,"[3]; mouse, in vivo, po",had no effect on motor performance
same,"Percent of motor activity after GHB administration, 0′","[3]; mouse, in vivo, po",168 ± 5%
same,"Percent of motor activity after GHB administration, 20′","[3]; mouse, in vivo, po",50 ± 24%
same,"Percent of motor activity after GHB administration, 40′","[3]; mouse, in vivo, po",303 ± 12%
same,"Percent of motor activity after GHB administration, 60′","[3]; mouse, in vivo, po",183 ± 4%
same,"Percent of motor activity after GHB administration, 80′","[3]; mouse, in vivo, po",156 ± 2%
same,"Percent of motor activity after GHB administration, 100′","[3]; mouse, in vivo, po",66 ± 9%
same,"Percent of motor activity after GHB administration, 160′","[3]; mouse, in vivo, po",126 ± 3%
same,"Percent of motor activity after GHB administration, 220′","[3]; mouse, in vivo, po",303 ± 23%
same,"Percent of motor activity after GHB administration, 280′","[3]; mouse, in vivo, po",141 ± 5%
same,Effect on plasma half-life of GHB,[4],can extend the plasma half-life of GHB
